Assays:
psoriasis = assay: Imiquimod-induced psoriasis model; format: in vivo, BALB/C mice; conditions: 10 mg/kg oral daily, 0th to 5th days, back skin on 6th day
Protocol: Hair on the back of female BALB/C mice (8-10 weeks old) was shaved using a shaver and shaving cream, and 62.5 mg of 5% imiquimod cream was applied daily for 6 days to the shaved skin from the next day. Vaseline cream was applied to control mice (Vehicle). In the compound 6 administration group according to an embodiment of the present invention, 10 mg/kg of the compound per mouse was completely added to an ethanol-Cremophor EL mixture (1:1, v/v) corresponding to 15% (v/v) of the administered dose, and then, was diluted in phosphate buffered saline to prepare the final ethanol:Cremophor EL:phosphate buffered saline (7.5:7.5:85, v/v/v), followed by oral administration with 200 μl of the prepared solution daily for a total of 6 times from the 0th to the 5th days of the experiment. On the 6th day of the experiment, back skin tissues of mice were obtained to perform histology and mRNA experiments.

CYP2C19 = CYP2C19 (Homo sapiens, UniProt P33261); assay: CYP isoenzyme activity; format: in vitro ADME; conditions: 10 μM
IL-6 = IL-6 production of A549 epithelial cells by IL-1β stimulation; format: cell-based, Human; conditions: A549, 5 μM, 48 hours then IL-1β 24 hours, vs control
Protocol: In order to assess the inhibitory effects of production of IL-6 by the compounds of the present invention prepared as above, an IL-6 production test of epithelial cells by stimulation of IL-1β was performed.
After recovering A549 cells under culture in DMEM-fetal bovine serum (FBS) 10% medium and confirming that the survival rate is 97% or more through trypan blue staining, the recovered product was centrifuged at a speed of 1200 rpm for 5 minutes at room temperature, and the cells were prepared by resuspending them in DMEM-10% fetal bovine serum medium at 1×10^6 cells/3 ml. Thereafter, the cells were dispensed by 3 ml onto a 60 mm plate, and each dish was treated with 50 μl of Compounds 6, 9, 21, 32 and 39 at a concentration of 5 μM diluted in DMEM medium, and then cultured in a cell incubator (5% CO2 incubator) for 48 hours. Then, the cells were treated with 50 μl of human recombinant IL-1β at a concentration of 12.5 ng/ml diluted in DMEM medium, followed by culturing the same in a cell incubator (5% CO2 incubator) for 24 hours. As a control, 50 μl of 0.05% dimethylsulfoxide (DMSO)/DMEM medium was used for treatment.
The cultured cells were recovered to prepare an mRNA sample. […] From the separated RNA, cDNA was synthesized by reverse transcription, and the expression of CYP1A1 was confirmed through a real-time polymerase chain reaction (PCR) using iQ SYBR-Green Supermix (Bio-rad) in a CFX96 (Bio-rad) detection system. […] Herein, one (1) fold was set using the control.
The real-time polymerase chain reaction was performed under the conditions of 45 cycles at an annealing temperature of 58° C., wherein the following primer sequences were used.

[1] = system: colitis-associated colorectal cancer (CA-CRC); assay: AOM/DSS colorectal cancer model, therapeutic administration; format: in vivo, C57BL/6 mice; conditions: 10 mg/kg oral, 50th to 63rd days (treatment)
Protocol: AOM (Sigma Aldrich, Cat No. A5486) was diluted with physiological saline so as to be a concentration of 10 mg/kg, and then administered intraperitoneally to C57BL/6 mice (8 weeks old, female, 18±2 g) by […] for a total of 3 times at an interval of 7 days (Experiment day 0, 7, 14th). On the 7th day of the experiment, a 1.5% DSS solution prepared by dissolving 1.5% DSS in sterile distilled water was given for drinking to the mice for 7 days. Further, the 1.5% DSS solution was changed at an interval of 2 days. Sterile distilled water was provided for drinking from the 8th day of the experiment. In the compound 6 administration group according to an embodiment of the present invention, 10 mg/kg of Compound 6 per mouse was completely dissolved in an ethanol-Cremophor EL mixture corresponding to 7.5% (v/v) of the administered dose, and then, was diluted in phosphate buffered saline to prepare the final ethanol:Cremophor EL:phosphate buffered saline (0.375:0.375:9.25, v/v/v), followed by oral administration with 200 μl of the prepared solution. In order to confirm the preventive effect, Compound 6 was administered for a total of 14 times from the 7th to the 20th days of the experiment. The effects of Compound 6 according to an embodiment of the present invention on treating colon cancer was confirmed. From the 50th to the 63rd days of the experiment, DSS was administered on the 7th and 14th days after AOM administration to the mice to induce colon cancer, and Compound 6 was administered 14 times from the 50th to the 63rd days. […] That is, it was confirmed that Compound 6 was effective in treating colon cancer (FIGS. 13 and 14). Therefore, it was confirmed that Compound 6 can be used as an effective preventive and therapeutic agent for colon cancer.

CYP1A1 = assay: Induction of CYP1A1 protein expression in HepG2 (7-ethoxyresorufin/resorufin); format: cell-based, Human; conditions: HepG2, 1 μM, 24 hours, vs control (vehicle)
Protocol: After recovering HepG2 under culture in DMEM-fetal bovine serum (FBS) 10% medium and then confirming that the survival rate is 97% or more through trypan blue staining, the recovered product was centrifuged at a speed of 1200 rpm for 5 minutes at room temperature, and the cells were prepared by resuspending them in DMEM-fetal calf serum 10% medium at 1.5×10^5 cells/ml.
Thereafter, the cells were dispensed onto a 96-well plate by 200 μl, and each plate was treated with 3 μl of Compounds 6, 21, 32 and 39 at a concentration of 1 μM diluted in DMEM medium, and then cultured in a cell incubator (5% CO2 incubator) for 24 hours. As a control, 3 μl of 0.05% dimethylsulfoxide (DMSO)/DMEM medium was used for treatment.
After 24 hours, the medium of the plate was discarded, washed with dPBS, treated with 100 μl of 2 μM 7-ethoxyresorufin, and cultured in a cell incubator (5% CO2 incubator) for 30 minutes. After 30 minutes, each 75 μl of fluorescamine (150 μg/ml) was treated, then resorufine excitation was measured at 535 nm and emission at 590 nm. The standard curve was measured and used with 0 to 50 pmol of resorufin solution.
After measurement, all solutions were removed, followed by treating the same with 25 μl of 0.5 M sodium hydroxide (NaOH), the cells were scraped and reacted in a shaker at room temperature for 15 minutes.
After 15 minutes, protein was quantified using a Bradford method, and a value was obtained using a calculation formula (sample resorufin amount/sample protein amount), and then one (1) fold was set using the control.

Chain of CYP2C19 (P33261 whole entry): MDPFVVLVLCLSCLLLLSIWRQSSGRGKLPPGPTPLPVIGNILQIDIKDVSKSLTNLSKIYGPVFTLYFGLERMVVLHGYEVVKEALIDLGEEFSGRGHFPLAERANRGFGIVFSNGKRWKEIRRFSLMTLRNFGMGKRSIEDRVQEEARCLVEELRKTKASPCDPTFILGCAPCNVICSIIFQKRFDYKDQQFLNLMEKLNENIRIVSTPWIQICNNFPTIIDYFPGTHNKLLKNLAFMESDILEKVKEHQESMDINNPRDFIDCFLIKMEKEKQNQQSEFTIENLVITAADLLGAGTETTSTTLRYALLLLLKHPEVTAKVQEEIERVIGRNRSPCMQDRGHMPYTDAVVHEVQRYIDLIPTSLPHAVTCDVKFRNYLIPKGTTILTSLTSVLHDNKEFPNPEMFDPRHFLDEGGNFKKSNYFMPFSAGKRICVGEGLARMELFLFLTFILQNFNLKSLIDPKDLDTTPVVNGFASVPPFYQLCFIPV

In the case of O=C(Cc1c[nH]c2ccc(Cl)cc12)Nc1nc2ccc(N3CCOCC3)cc2s1 [Compound 6, 2-(5-chloro-1H-indol-3-yl)-N-(6-morpholinobenzo[d]thiazol-2-yl)acetamide], the “Foxp3 expression in skin lesions” value (psoriasis) is reported as “markedly increased”, the “IL-10 expression in skin lesions” value (psoriasis) is reported as “markedly increased” and the “IL-17a mRNA expression level in skin lesions” value (psoriasis) is reported as “significantly reduced”. The “S100a8 mRNA expression level in skin lesions” value (psoriasis) was “significantly reduced”, the epithelial thickness (psoriasis) was “significantly reduced” and the CYP2C19 activity (CYP2C19) was 93.1 % of Control Activity. For the same compound, the “inhibition of the enzyme activity of CYP2C19” value (CYP2C19) was “little effect”, the “IL-6 production of A549 by IL-1β stimulation” value (IL-6) was “significantly reduced” and the body weight ([1]; after 70 days) was “increase in the body weight similar to that of normal mice”. For the same compound, the number of tumors ([1]; vs control) was “significantly smaller”, the size of tumors ([1]; vs control) was “significantly smaller” and the “CYP1A1 protein expression level” value (CYP1A1) was “significantly higher”.
